Measured values: ChEMBL document CHEMBL1201862, “PubChem BioAssay data set” (2004)
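Assay format: 96-well plates, 48-hour exposure. GI50 is the concentration that inhibits growth by half.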 Activity calls are given as the source filed them. Rule as the data show it: active = GI50 up to about 1.1 µM and inactive = higher.

What was measured:
Test in all cases: inhibition of tumour cell growth, NCI panel, 48 h
SR = system: SR
OVCAR-5 = system: OVCAR-5
SW-620 = system: SW-620
UACC-257 = system: UACC-257
T47D = system: T47D
HOP-62 = system: HOP-62
HOP-92 = system: HOP-92
CAKI-1 = system: CAKI-1
COLO 205 = system: COLO 205
NCI-H522 = system: NCI-H522
MDA-MB-435 = system: MDA-MB-435
OVCAR-8 = system: OVCAR-8
OVCAR-3 = system: OVCAR-3
UO-31 = system: UO-31
HL-60 = system: HL-60
OVCAR-4 = system: OVCAR-4
A498 = system: A498
SF-539 = system: SF-539
U-251 = system: U-251
SNB-19 = system: SNB-19

Structure (SMILES) | GI50 (SR) | GI50 (OVCAR-5) | GI50 (SW-620) | GI50 (UACC-257) | GI50 (T47D) | GI50 (HOP-62) | GI50 (HOP-92) | GI50 (CAKI-1) | GI50 (COLO 205) | GI50 (NCI-H522) | GI50 (MDA-MB-435) | GI50 (OVCAR-8) | GI50 (OVCAR-3) | GI50 (UO-31) | GI50 (HL-60) | GI50 (OVCAR-4) | GI50 (A498) | GI50 (SF-539) | GI50 (U-251) | GI50 (SNB-19)
COc1cc2c(cc1OCCCCN1CCN(CCCCOc3cc4c(cc3OC)C(=O)N3CCC[C@H]3C=N4)CC1)N=C[C@@H]1CCCN1C2=O | 1 µM (active) | 0.0417 µM (active) | < 0.0119 µM (active) | 0.0627 µM (active) | < 0.0118 µM (active) | 0.0236 µM (active) | < 0.01 µM (active) | 0.0318 µM (active) | 0.0158 µM (active) | < 0.01 µM (active) | 0.0508 µM (active) | < 0.0172 µM (active) | 0.0372 µM (active) | 0.0798 µM (active) | < 0.01 µM (active) | 0.0776 µM (active) | 0.0543 µM (active) | < 0.01 µM (active) | 0.0167 µM (active) | –
C/C=C1/CN2[C@@H](C3=C[C@@H]4[C@@H]5N(C3=O)c3ccccc3[C@@]53CCN5C/C(=C/C)[C@@H]4C[C@H]53)C[C@@]34c5ccccc5N5C(=O)CC=C([C@H]1C[C@H]23)[C@H]54 [ISOSUNGUCINE] | 1.19 µM (inactive) | 7.76 µM (inactive) | 2.92 µM (inactive) | 1.24 µM (inactive) | 9.93 µM (inactive) | 7.06 µM (inactive) | 5.55 µM (inactive) | 5.86 µM (inactive) | 1.81 µM (inactive) | 6.9 µM (inactive) | 5.01 µM (inactive) | 3.91 µM (inactive) | 5.85 µM (inactive) | 2.32 µM (inactive) | 1.03 µM (active) | 6.43 µM (inactive) | 6.92 µM (inactive) | 1.11 µM (active) | 2.23 µM (inactive) | 7.52 µM (inactive)
COc1ccc(/C=C/C(=O)Oc2ccccc2OC)cc1 | 6.73 µM (inactive) | 23.6 µM (inactive) | 21.5 µM (inactive) | > 60.7 µM (inactive) | 31.5 µM (inactive) | 8 µM (inactive) | > 48.2 µM (inactive) | > 46.1 µM (inactive) | 7.26 µM (inactive) | 20.3 µM (inactive) | 40.6 µM (inactive) | 26.5 µM (inactive) | 53.8 µM (inactive) | 37.7 µM (inactive) | 6.98 µM (inactive) | 9.59 µM (inactive) | > 100 µM (inactive) | 53.2 µM (inactive) | 37.4 µM (inactive) | 50.2 µM (inactive)
O=S1(=O)CCC2=CC(C(F)(F)F)=CC(C(F)(F)F)=CN21 | 0.216 µM (active) | 2.11 µM (inactive) | 0.302 µM (active) | 2.14 µM (inactive) | 0.167 µM (active) | 2.34 µM (inactive) | 1.15 µM (inactive) | 0.56 µM (active) | 0.454 µM (active) | 0.236 µM (active) | 1.82 µM (inactive) | 0.308 µM (active) | 1.12 µM (active) | 0.805 µM (active) | 0.168 µM (active) | 1.71 µM (inactive) | 2.08 µM (inactive) | 1.42 µM (inactive) | 1.83 µM (inactive) | 2.47 µM (inactive)
CN(C)CCNc1ccc(C(=O)NCCCN(C)CCCNC(=O)c2ccc(NCCN(C)C)c3c(=O)c4ccccc4[nH]c23)c2[nH]c3ccccc3c(=O)c12 | < 0.01 µM (active) | 0.0458 µM (active) | < 0.0113 µM (active) | 0.968 µM (active) | 0.119 µM (active) | < 0.0291 µM (active) | 0.0724 µM (active) | 5.6 µM (inactive) | 0.0163 µM (active) | < 0.01 µM (active) | 0.032 µM (active) | 0.0272 µM (active) | 0.469 µM (active) | 1.27 µM (inactive) | 0.155 µM (active) | 0.0322 µM (active) | 0.105 µM (active) | < 0.01 µM (active) | < 0.01 µM (active) | < 0.0118 µM (active)
C/C(=N\Nc1nc2ccccc2o1)c1cc2ccccc2cn1 | 0.112 µM (active) | 0.225 µM (active) | < 0.01 µM (active) | < 0.01 µM (active) | < 0.01 µM (active) | 0.14 µM (active) | < 0.0208 µM (active) | < 0.01 µM (active) | < 0.01 µM (active) | < 0.01 µM (active) | 0.202 µM (active) | < 0.01 µM (active) | < 0.01 µM (active) | < 0.0147 µM (active) | < 0.01 µM (active) | 0.0906 µM (active) | 15 µM (inactive) | < 0.0281 µM (active) | < 0.0215 µM (active) | 0.547 µM (active)
CCOP(C)(=O)C(N)Cc1ccc(OC)c(OC)c1 (centres undefined) | > 100 µM (inactive) | – | > 100 µM (inactive) | – | > 100 µM (inactive) | > 100 µM (inactive) | > 100 µM (inactive) | > 100 µM (inactive) | > 100 µM (inactive) | > 100 µM (inactive) | > 100 µM (inactive) | > 100 µM (inactive) | > 100 µM (inactive) | > 100 µM (inactive) | > 100 µM (inactive) | > 100 µM (inactive) | > 100 µM (inactive) | > 100 µM (inactive) | > 100 µM (inactive) | > 100 µM (inactive)
O=C(O)c1cnccc1-c1cc(=O)[nH]n1-c1ccccc1 | 11.3 µM (inactive) | > 63.4 µM (inactive) | > 23.2 µM (inactive) | 66.1 µM (inactive) | 23.5 µM (inactive) | 51.1 µM (inactive) | > 53.2 µM (inactive) | 15.4 µM (inactive) | 16 µM (inactive) | > 63.4 µM (inactive) | 46 µM (inactive) | 52.8 µM (inactive) | > 43.9 µM (inactive) | 27.9 µM (inactive) | 20.9 µM (inactive) | > 51.9 µM (inactive) | > 100 µM (inactive) | 35.6 µM (inactive) | > 100 µM (inactive) | > 100 µM (inactive)
CN(C)c1cc2ccccc2oc1=O | > 100 µM (inactive) | > 100 µM (inactive) | > 100 µM (inactive) | > 100 µM (inactive) | > 100 µM (inactive) | > 100 µM (inactive) | > 100 µM (inactive) | > 100 µM (inactive) | > 100 µM (inactive) | > 100 µM (inactive) | > 100 µM (inactive) | > 100 µM (inactive) | > 100 µM (inactive) | > 100 µM (inactive) | > 100 µM (inactive) | > 100 µM (inactive) | > 100 µM (inactive) | > 100 µM (inactive) | > 100 µM (inactive) | > 100 µM (inactive)
COC(=O)c1c(O)ccc2c1c1cc3ccccc3c(O)c1n2Cc1ccccc1Cl | 25.4 µM (inactive) | 34.9 µM (inactive) | – | 47.5 µM (inactive) | 12.2 µM (inactive) | 26.1 µM (inactive) | 16.9 µM (inactive) | 22.4 µM (inactive) | 16.8 µM (inactive) | 8.26 µM (inactive) | 18.5 µM (inactive) | 25.3 µM (inactive) | 15.7 µM (inactive) | 22.1 µM (inactive) | 32.8 µM (inactive) | 11.6 µM (inactive) | > 100 µM (inactive) | 17.3 µM (inactive) | 31.4 µM (inactive) | 59.4 µM (inactive)
O=C(Nc1cc2cc([N+](=O)[O-])ccc2oc1=O)c1cccs1 | 35 µM (inactive) | > 100 µM (inactive) | 49.9 µM (inactive) | 75.2 µM (inactive) | 38.5 µM (inactive) | 28.8 µM (inactive) | 37.6 µM (inactive) | 48.6 µM (inactive) | 25.2 µM (inactive) | 24.5 µM (inactive) | 25.2 µM (inactive) | 34.2 µM (inactive) | 97.5 µM (inactive) | 60.4 µM (inactive) | 16.7 µM (inactive) | 43.6 µM (inactive) | > 100 µM (inactive) | 25.6 µM (inactive) | 19.8 µM (inactive) | > 100 µM (inactive)
C[N+](C)(CCNC(=O)c1cccc2cc3ccccc3nc12)Cc1ccc([N+](=O)[O-])cc1 | > 100 µM (inactive) | > 100 µM (inactive) | > 100 µM (inactive) | > 100 µM (inactive) | > 100 µM (inactive) | > 100 µM (inactive) | > 100 µM (inactive) | > 100 µM (inactive) | > 100 µM (inactive) | > 100 µM (inactive) | > 100 µM (inactive) | > 100 µM (inactive) | > 100 µM (inactive) | > 100 µM (inactive) | > 100 µM (inactive) | > 100 µM (inactive) | > 100 µM (inactive) | > 100 µM (inactive) | > 100 µM (inactive) | > 100 µM (inactive)
CC(=O)NC1CONC1=O (centres undefined) | > 100 µM (inactive) | > 100 µM (inactive) | > 100 µM (inactive) | > 100 µM (inactive) | > 100 µM (inactive) | > 100 µM (inactive) | > 100 µM (inactive) | > 100 µM (inactive) | > 100 µM (inactive) | > 100 µM (inactive) | > 100 µM (inactive) | > 100 µM (inactive) | > 100 µM (inactive) | > 100 µM (inactive) | > 100 µM (inactive) | > 100 µM (inactive) | > 100 µM (inactive) | > 100 µM (inactive) | > 100 µM (inactive) | > 100 µM (inactive)
CC(=O)Oc1ccc2c(c1)c1c(OC(C)=O)c3ccccc3c(OC(C)=O)c1n2Cc1cccc(C)c1 | 24.3 µM (inactive) | 34.4 µM (inactive) | – | – | 21.8 µM (inactive) | 25.3 µM (inactive) | 1.5 µM (inactive) | 40.3 µM (inactive) | 60.5 µM (inactive) | 19.6 µM (inactive) | 65.6 µM (inactive) | 48.6 µM (inactive) | 21.4 µM (inactive) | 40 µM (inactive) | 42.4 µM (inactive) | 33.3 µM (inactive) | 29.3 µM (inactive) | 25.1 µM (inactive) | 22.3 µM (inactive) | 67 µM (inactive)
